Measured values from publication PMC2358886, “Evolution of pharmacologic specificity in the pregnane X receptor” (BMC Evolutionary Biology, 2008).
Read-outs that look alike come from different tables or passages of the source.

Assays:
zebrafish PXR = biological target: T1, zebrafish PXR (Danio rerio, UniProt A5WYG8); settings: for zfPXR Efficacy: relative to 20 μM 5α-androstan-3α-ol, assigned an efficacy of 1.0; for zfPXR Activity: -log(EC50), EC50 in molar units, activation of zebrafish PXR
T1 sequence (A5WYG8 144-430): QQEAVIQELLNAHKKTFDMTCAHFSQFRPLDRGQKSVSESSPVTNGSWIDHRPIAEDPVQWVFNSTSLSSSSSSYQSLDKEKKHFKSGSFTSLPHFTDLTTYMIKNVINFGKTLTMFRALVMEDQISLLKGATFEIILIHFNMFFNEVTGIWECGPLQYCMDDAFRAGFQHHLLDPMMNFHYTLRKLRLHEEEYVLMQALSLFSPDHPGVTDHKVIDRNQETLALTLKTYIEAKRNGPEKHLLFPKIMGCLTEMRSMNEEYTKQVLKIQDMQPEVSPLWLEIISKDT

HepG2 cells [1] = assay: Toxicity assays in HepG2 cells (MTT and alamar blue reduction); settings: lowest concentration that produced significant toxicity in the HepG2 cells
human PXR [2] = biological target: T2, human PXR (Homo sapiens, UniProt O75469); assay: PXR activation luciferase reporter assay, human PXR in HepG2-NTCP cells; settings: for hPXR Efficacy: relative to 10 μM rifampicin, assigned an efficacy of 1.0; for hPXR Activity: -log(EC50), EC50 in molar units, activation of human PXR
T2 sequence (O75469 1-434): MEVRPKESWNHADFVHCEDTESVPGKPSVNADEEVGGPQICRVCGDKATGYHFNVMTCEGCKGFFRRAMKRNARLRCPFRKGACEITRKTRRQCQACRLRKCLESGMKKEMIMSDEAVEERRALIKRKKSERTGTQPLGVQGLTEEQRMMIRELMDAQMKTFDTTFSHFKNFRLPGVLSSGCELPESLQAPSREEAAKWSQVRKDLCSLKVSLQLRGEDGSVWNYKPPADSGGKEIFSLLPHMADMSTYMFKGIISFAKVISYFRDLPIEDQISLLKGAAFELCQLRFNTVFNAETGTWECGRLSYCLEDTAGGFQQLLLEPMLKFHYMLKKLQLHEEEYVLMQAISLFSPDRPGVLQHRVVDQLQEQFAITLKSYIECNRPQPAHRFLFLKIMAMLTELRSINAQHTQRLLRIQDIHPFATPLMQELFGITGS

human PXR [3] = biological target: T2, human PXR
HepG2 cells [4] = system: HepG2 cells

Molecule | zfPXR Efficacy (zebrafish PXR) | Toxicity (HepG2 cells [1]) | hPXR Efficacy (human PXR [2]) | zfPXR Activity (zebrafish PXR) | hPXR Activity (human PXR [2]) | hPXR Efficacy (human PXR [3]) | Toxicity (HepG2 cells [4])
C[C@]12CCC(=O)C[C@@H]1CC[C@@H]1[C@@H]2CC[C@]2(C)[C@@H](O)CC[C@@H]12 [AN5, 5α-Androstan-17β-ol-3-one] | 0.59 | None | 0.39 |  |  |  | 
C[C@]12CC[C@@H](O)C[C@H]1CC[C@@H]1[C@@H]2[C@@H](O)C[C@]2(C)C(=O)CC[C@@H]12 [AN11, 5β-Androstan-3α,11β-diol-17-one] | 1.04 | None | 0.51 | 4.52 | 4.72 |  | 
C[C@]12CC[C@@H](O)C[C@H]1CC[C@@H]1[C@@H]2C(=O)C[C@]2(C)C(=O)CC[C@@H]12 [AN14, 5β-Androstan-3α-ol-11,17-dione] | 0.49 | None | 0.15 | 5.01 | 4.39 |  | 
C[C@]12CC[C@H]3[C@@H](CCC4=CC(=O)CC[C@@]43C)[C@@H]1CC[C@H]2O[C@@H]1O[C@H](C(=O)O)[C@@H](O)[C@H](O)[C@H]1O [AN16, 4-Androsten-17α-glucosiduronate-3-one] |  | None | 0.69 | None | 4.86 |  | 
C[C@H](CCCO)[C@H]1CC[C@H]2[C@@H]3[C@H](O)C[C@H]4CC(=O)CC[C@]4(C)[C@H]3C[C@H](O)[C@]12C [BI28, 5α-Cholan-7α,12α,-24-triol-3-one] |  | None |  | None | None |  | 
C[C@H](CCCOS(=O)(=O)O)[C@H]1CC[C@H]2[C@@H]3[C@H](O)C[C@H]4C[C@H](O)CC[C@]4(C)[C@H]3C[C@H](O)[C@]12C [BI30, 5α-Cholan-3α,7α,12α-triol-24-sulfate] |  | None | 1.02 | None | 4.55 |  | 
C[C@H](CCC(=O)O)[C@H]1CC[C@H]2[C@@H]3[C@H](O)C[C@H]4CC(=O)CC[C@]4(C)[C@H]3C[C@H](O)[C@]12C [BI33, 5α-Cholanic acid-7α,12α-diol-3-one] |  | None | 0.26 | None | 4.92 |  | 
C[C@H](O)[C@H]1CC[C@H]2[C@@H]3CC[C@@H]4C[C@H](O[C@@H]5O[C@H](C(=O)O)[C@@H](O)[C@H](O)[C@H]5O)CC[C@]4(C)[C@H]3CC[C@]12C [PR16, 5β-Pregnan-3α,20α-diol-3-glucosiduronate] | 1.42 |  |  | 4.78 | 4.26 | 0.17 | None
C[C@]12CC[C@@H](O)C[C@@H]1CC[C@@H]1[C@@H]2[C@@H](O)C[C@]2(C)[C@@H](C(=O)CO)CC[C@@H]12 [PR20, 5α-Pregnan-3α,11β,21-triol-20-one] |  |  |  | None | 4.90 | 0.26 | None
CC(=O)[C@H]1CC[C@H]2[C@@H]3CC[C@@H]4C[C@H](O)CC[C@]4(C)[C@H]3CC[C@]12C [PR25, 5β-Pregnan-3α-ol-20-one] |  |  |  | 6.64 | 4.98 | 0.55 | 100 µM
Vitamin K2 [MI45] |  |  |  | None | 5.04 | 0.80 | 100 µM
